{
  "source": "patent US6544524B2",
  "about": "“Ethyl acetate extract from guignardia used to treat an individual infected by fungi or bacteria” (Fundacao Oswaldo Cruz - FIOCRUZ, priority 2001, dated 2003)",
  "key": {"[1]": {"tested_on": "Escherichia coli (ATCC 25922)", "test": "bioautographical method on a layer of agar", "format": "cell-based", "conditions": "against E. coli; Mueller-Hinton agar, 37° C., 24 hours, MTT", "method": "(§1) The antimicrobial activity of this compound was detected employing the bioautographical method on a layer of agar (Rahalison,L.; Hamburger, M., Hostettmann, K.; Monod, M.; Frenk, E. Phytochemical Ananlysis.2.199-203.1991). The following micro-organisms were tested: Escherichia coli (ATCC 25922) and Staphylococcus aureus (ATCC 25923). The medium used was the Mueller-Hinton in agar (Oxoid). The cultures grew during the night in nutrient medium broth number 3 (Fluka). For the bioautographic test the cultures were standardised through successive dilutions in 10^5 cells/ml. The plaques were incubated at 37° C. for a period of 24 hours, sprayed with an aqueous solution of Methylthiazolyltetrazolium chloride (MTT)at 0.25% and then incubated for a further two hours at 37° C. The active fractions were detected under the form of white areas of inhibition on a lilac background."}, "[2]": {"tested_on": "Staphylococcus aureus (ATCC 25923)", "test": "bioautographical method on a layer of agar", "format": "cell-based", "conditions": "against S. aureus; Mueller-Hinton agar, 37° C., 24 hours, MTT", "method": "as §1"}},
  "data": [
    {"smiles": "CC(C)C1(C(=O)O)OC(=O)/C(=C/c2ccccc2)O1", "note": "(centres unmarked) [compound of the invention, (Z)-5-benzylidene-2-isopropyl-4-oxo-1.3-dioxolane-2-carboxyl acid]", "values": [
      {"measurement": "antibacterial activity", "setting": "[1]", "value": 150, "unit": "nM"},
      {"measurement": "antibacterial activity", "setting": "[2]", "value": 75, "unit": "nM"}
    ]}
  ]
}
